Measurements published in US11345710B2, “Imidazo[1,2-b]pyrimido[4,5-d]pyridazin-5(6H)-ones and the use thereof” (IMPACT THERAPEUTICS (SHANGHAI), INC, priority 2017, dated 2022).
Like-named read-outs stand apart in the source and are kept apart here.

Tests used:
Wee1 kinase (h) = Wee1 kinase (h) (Homo sapiens, UniProt P30291); experiment: Wee1 kinase (h) detection method, [γ-33P]-ATP filter assay; assay type: biochemical; conditions: 10 μM ATP, 40 minutes at room temperature
Summary of the method: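 Radiometric filter-binding assay with human Wee1 in 20 mM Tris/HCl pH 8.5, 0.2 mM EDTA, 500 μM peptide substrate, 10 mM Mg acetate, 10 μM [γ-33P]-ATP; compounds at final 1, 0.1 or 0.01 μM. Reaction 40 min at room temperature, stopped with 0.5% phosphoric acid, spotted on P30 filtermat, scintillation counted, duplicates.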

[1] = test system: patients with advanced solid tumors; conditions: cited from earlier work
LoVo cells = experiment: MTT based cell viability assay on LoVo cells; conditions: Homo sapiens, 72 h; LoVo cells, 3 d, MTT; read-out: IC50, growth inhibition on LoVo cells
NCI-H1299 cells = experiment: MTT based cell viability assay on NCI-H1299 cells; conditions: Homo sapiens, 72 h; NCI-H1299 cells, 3 d, MTT; read-out: IC50, growth inhibition on NCI-H1299 cells
Summary of the method: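 NCI-H1299 cells (1000/well) were plated overnight, then given a seven-point serial compound dilution plus DMSO control for 3 d at 37 °C, 5% CO2. Viability was read by MTT (0.5 mg/mL, 4 h, DMSO-solubilised) at 552/630/690 nm. IC50 came from a sigmoidal fit of survival versus concentration.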

[2] = of 176 evaluable patients, alone or in combination with chemotherapy

Chain of Wee1 kinase (h) (P30291 whole entry): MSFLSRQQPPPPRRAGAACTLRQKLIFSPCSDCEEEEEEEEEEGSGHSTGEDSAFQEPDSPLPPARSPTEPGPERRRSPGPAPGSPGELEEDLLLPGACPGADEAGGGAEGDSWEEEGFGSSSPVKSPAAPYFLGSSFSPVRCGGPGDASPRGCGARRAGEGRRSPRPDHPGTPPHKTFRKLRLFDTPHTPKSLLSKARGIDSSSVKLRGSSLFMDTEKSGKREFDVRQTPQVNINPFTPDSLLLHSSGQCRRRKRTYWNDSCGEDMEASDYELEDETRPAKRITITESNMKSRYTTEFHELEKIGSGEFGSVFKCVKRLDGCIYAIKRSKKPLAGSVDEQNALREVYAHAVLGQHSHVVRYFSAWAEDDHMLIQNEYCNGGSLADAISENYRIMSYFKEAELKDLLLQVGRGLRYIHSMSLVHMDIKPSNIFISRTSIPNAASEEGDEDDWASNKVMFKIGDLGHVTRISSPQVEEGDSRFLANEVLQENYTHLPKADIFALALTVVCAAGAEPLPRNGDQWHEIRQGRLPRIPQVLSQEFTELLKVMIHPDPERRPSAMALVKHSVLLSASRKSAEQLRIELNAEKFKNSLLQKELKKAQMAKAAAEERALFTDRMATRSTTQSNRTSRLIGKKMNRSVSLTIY

Row | Compound | Inh. (%) of Wee1 kinase (Wee1 kinase (h); C 0.01 μm) [%] | IC50 (LoVo cells) [nM] | IC50 (NCI-H1299 cells) [nM] | Inh. (%) of Wee1 kinase (Wee1 kinase (h); C 1 μm) [%] | Inh. (%) of Wee1 kinase (Wee1 kinase (h); C 0.1 μm) [%] | response rate ([1]; TP53 wild-type patients (n=33)) [%] | safety and tolerability ([1]; alone or in combination with chemotherapy, at a certain dose) | partial response [1, 2] [%] | stable disease as the best response [1, 2] [%] | response rate ([1]; patients with TP53 mutation (n=19)) [%]
1 | C=CCn1c(=O)c2cnc(Nc3ccc(N4CCN(C)CC4)cc3)nc2n1-c1cccc(C(C)(C)O)n1 [AZD1775] | 28 | 154 | 116 | – | – | 12 | safe and tolerable | 10 | 53 | 21
2 | CN(C)C1CCN(c2ccc(Nc3ncc4c(=O)n(-c5c(Cl)cccc5Br)n5ccnc5c4n3)cc2Cl)CC1 [Example 48, 6-(2-bromo-6-chlorophenyl)-2-((3-chloro-4-(4-(dimethylamino)piperidin-1-yl)phenyl)amino)imidazo[1,2-b]pyrimido[4,5-d]pyridazin-5(6H)-one] | 23 | 227 | 281 | 93 | – | – | – | – | – | –
3 | Cc1cc(Nc2ncc3c(=O)n(-c4c(Cl)cccc4Br)n4ccnc4c3n2)ccc1N1CCC(N(C)C)CC1 [Example 49, 6-(2-bromo-6-chlorophenyl)-2-((3-methyl-4-(4-(dimethylamino)piperidin-1-yl)phenyl)amino)imidazo[1,2-b]pyrimido[4,5-d]pyridazin-5(6H)-one] | – | 272 | 337 | 91 | – | – | – | – | – | –
4 | Cc1cc(Nc2ncc3c(=O)n(-c4c(Cl)cccc4Br)n4ccnc4c3n2)cc(F)c1N1CCC(N(C)C)CC1 [Example 50, 6-(2-bromo-6-chlorophenyl)-2-((3-fluoro-5-methyl-4-(4-(dimethylamino)piperidin-1-yl)phenyl)amino)imidazo[1,2-b]pyrimido[4,5-d]pyridazin-5(6H)-one] | – | 324 | 501 | 94 | – | – | – | – | – | –
5 | Cc1cccc(F)c1-n1c(=O)c2cnc(Nc3ccc(N4CCN(C)CC4)c(Cl)c3)nc2c2nccn21 [Example 51, 6-(2-fluoro-6-methylphenyl)-2-((3-chloro-4-(4-methylpiperazin-1-yl)phenyl)amino)imidazo[1,2-b]pyrimido[4,5-d]pyridazin-5(6H)-one] | – | 998 | 1220 | 88 | – | – | – | – | – | –
6 | Cc1cc(Nc2ncc3c(=O)n(-c4c(C)cccc4F)n4ccnc4c3n2)cc(Cl)c1N1CCN(C)CC1 [Example 52, 6-(2-fluoro-6-methylphenyl)-2-((3-chloro-5-methyl-4-(4-methylpiperazin-1-yl)phenyl)amino)imidazo[1,2-b]pyrimido[4,5-d]pyridazin-5(6H)-one] | – | 756 | 809 | 78 | – | – | – | – | – | –
7 | Cc1cccc(Cl)c1-n1c(=O)c2cnc(Nc3ccc(N4CCN(C)CC4)c(Cl)c3)nc2c2nccn21 [Example 53, 6-(2-chloro-6-methylphenyl)-2-((3-chloro-4-(4-methylpiperazin-1-yl)phenyl)amino)imidazo[1,2-b]pyrimido[4,5-d]pyridazin-5(6H)-one] | 12 | 642 | 809 | 94 | 69 | – | – | – | – | –
8 | Cc1cc(Nc2ncc3c(=O)n(-c4c(C)cccc4Cl)n4ccnc4c3n2)cc(F)c1N1CCN(C)CC1 [Example 54, 6-(2-chloro-6-methylphenyl)-2-((3-fluoro-5-methyl-4-(4-methylpiperazin-1-yl)phenyl)amino)imidazo[1,2-b]pyrimido[4,5-d]pyridazin-5(6H)-one] | – | 637 | 419 | 91 | – | – | – | – | – | –
9 | Cc1cc(Nc2ncc3c(=O)n(-c4c(C)cccc4Cl)n4ccnc4c3n2)cc(Cl)c1N1CCN(C)CC1 [Example 55, 6-(2-chloro-6-methylphenyl)-2-((3-chloro-5-methyl-4-(4-methylpiperazin-1-yl)phenyl)amino)imidazo[1,2-b]pyrimido[4,5-d]pyridazin-5(6H)-one] | 0 | 560 | 663 | 89 | 46 | – | – | – | – | –
10 | Cc1cnc2c3nc(Nc4ccc(N5CCN(C)CC5)c(Cl)c4)ncc3c(=O)n(-c3c(Cl)cccc3Cl)n12 [Example 56, 6-(2,6-dichlorophenyl)-2-((3-chloro-4-(4-methylpiperazin-1-yl)phenyl)amino)-8-methylimidazo[1,2-b]pyrimido[4,5-d]pyridazin-5(6H)-one] | – | 434 | 540 | 95 | – | – | – | – | – | –

Second part, led by results:

Row | Inh. (%) of Wee1 kinase (Wee1 kinase (h); C 0.01 μm) [%] | IC50 (LoVo cells) [nM] | IC50 (NCI-H1299 cells) [nM] | Inh. (%) of Wee1 kinase (Wee1 kinase (h); C 1 μm) [%] | Inh. (%) of Wee1 kinase (Wee1 kinase (h); C 0.1 μm) [%] | Compound | response rate ([1]; TP53 wild-type patients (n=33)) [%] | safety and tolerability ([1]; alone or in combination with chemotherapy, at a certain dose) | partial response [1, 2] [%] | stable disease as the best response [1, 2] [%] | response rate ([1]; patients with TP53 mutation (n=19)) [%]
11 | 12 | 269 | 173 | 93 | – | Cc1cn2c(n1)c1nc(Nc3ccc(N4CCN(C)CC4)c(Cl)c3)ncc1c(=O)n2-c1c(Cl)cccc1Cl [Example 57, 6-(2,6-dichlorophenyl)-2-((3-chloro-4-(4-methylpiperazin-1-yl)phenyl)amino)-9-methylimidazo[1,2-b]pyrimido[4,5-d]pyridazin-5(6H)-one] | – | – | – | – | –
12 | 9 | 242 | 151 | – | – | Cc1cn2c(n1)c1nc(Nc3ccc(N4CCC(N(C)C)CC4)c(C)c3)ncc1c(=O)n2-c1c(Cl)cccc1Cl [Example 58, 6-(2,6-dichlorophenyl)-2-((3-methyl-4-(4-(dimethylamino)piperidin-1-yl)phenyl)amino)-9-methylimidazo[1,2-b]pyrimido[4,5-d]pyridazin-5(6H)-one] | – | – | – | – | –
13 | 7 | 285 | 220 | – | – | Cc1cn2c(n1)c1nc(Nc3cc(C)c(N4CCC(N(C)C)CC4)c(F)c3)ncc1c(=O)n2-c1c(Cl)cccc1Cl [Example 59, 6-(2,6-dichlorophenyl)-2-((3-fluoro-5-methyl-4-(4-(dimethylamino)piperidin-1-yl)phenyl)amino)-9-methylimidazo[1,2-b]pyrimido[4,5-d]pyridazin-5(6H)-one] | – | – | – | – | –
14 | 12 | 352 | 126 | – | – | CCc1cn2c(n1)c1nc(Nc3ccc(N4CCC(N(C)C)CC4)c(C)c3)ncc1c(=O)n2-c1c(Cl)cccc1Cl [Example 61, 6-(2,6-dichlorophenyl)-2-((3-methyl-4-(4-(dimethylamino)piperidin-1-yl)phenyl)amino)-9-ethylimidazo[1,2-b]pyrimido[4,5-d]pyridazin-5(6H)-one] | – | – | – | – | –
15 | 7 | 620 | 197 | – | – | Cc1cc(Nc2ncc3c(=O)n(-c4c(Cl)cccc4Cl)n4cc(C(C)C)nc4c3n2)ccc1N1CCC(N(C)C)CC1 [Example 62, 6-(2,6-dichlorophenyl)-2-((3-methyl-4-(4-(dimethylamino)piperidin-1-yl)phenyl)amino)-9-isopropylimidazo[1,2-b]pyrimido[4,5-d]pyridazin-5(6H)-one] | – | – | – | – | –
